ChEMBL document CHEMBL1151449, “In vitro activity of DC-159a, a new broad-spectrum fluoroquinolone, compared with that of other agents against drug-susceptible and -resistant pneumococci” (2008)
In brackets after ≈: the same amount, converted by molar mass.

Columns and labels:
Assay type in all cases: functional
Streptococcus pneumoniae [1] = experiment: Antibacterial activity against penicillin-, quinolone-resistant and macrolide-susceptible Streptococcus pneumoniae HMC 1058 harboring S79F, K137N mutation in quinolone-resistant determining regions of ParC gene and 460V mutation in QRDR of ParE gene by broth microdilution method
Streptococcus pneumoniae [2] = experiment: Antibacterial activity against penicillin-resistant and quinolone-susceptible Streptococcus pneumoniae HMC 228 expressing ermB by broth microdilution method
Streptococcus pneumoniae [3] = experiment: Antibacterial activity against penicillin-resistant and quinolone-susceptible Streptococcus pneumoniae HMC 3583 expressing mefA by broth microdilution method
Streptococcus pneumoniae [4] = experiment: Antibacterial activity against penicillin-, quinolone-resistant Streptococcus pneumoniae HMC 1541 harboring mutation in L4 protein by broth microdilution method
Streptococcus pneumoniae [5] = experiment: Antibacterial activity against penicillin- and quinolone-susceptible Streptococcus pneumoniae HMC 5055 expressing mefA after 50 passages by broth microdilution method
Streptococcus pneumoniae [6] = experiment: Antibacterial activity against penicillin-, macrolide- and quinolone-susceptible Streptococcus pneumoniae HMC 63 after 50 passages by broth microdilution method
Streptococcus pneumoniae [7] = experiment: Antibacterial activity against quinolone-susceptible and penicillin-intermediate Streptococcus pneumoniae HMC 5048 expressing mefA after 50 passages by broth microdilution method
Streptococcus pneumoniae [8] = experiment: Antibacterial activity against macrolide-, quinolone-susceptible and penicillin-intermediate Streptococcus pneumoniae HMC 99 after 50 passages by broth microdilution method
Streptococcus pneumoniae [9] = experiment: Antibacterial activity against macrolide-, quinolone-susceptible and penicillin-intermediate Streptococcus pneumoniae HMC 100 after 50 passages by broth microdilution method
Streptococcus pneumoniae [10] = experiment: Antibacterial activity against penicillin-resistant and quinolone-susceptible Streptococcus pneumoniae HMC 3583 expressing mefA after 50 passages by broth microdilution method
Streptococcus pneumoniae [11] = experiment: (§1) Antibacterial activity against penicillin-, macrolide-susceptible and quinolone-resistant Streptococcus pneumoniae HMC 1074 harboring S81F mutation in quinolone-resistant determining regions of GyrA gene, S79F mutation in QRDR of ParC gene and I460V mutation in QRDR of ParE gene after 50 passages by broth microdilution method
Streptococcus pneumoniae [12] = experiment: (§2) Antibacterial activity against penicillin-, macrolide- and quinolone-susceptible Streptococcus pneumoniae HMC 63 harboring S81F mutation in quinolone-resistant determining regions of GyrA gene, D83Y mutation in QRDR of ParC gene and I460V mutation in QRDR of ParE gene after 34 passages with gemifloxacin measured after 10 daily antibiotic-free subculturing by multi-step resistance selection technique
Streptococcus pneumoniae [13] = experiment: (§3) Antibacterial activity against macrolide-, quinolone-susceptible and penicillin-intermediate Streptococcus pneumoniae HMC 99 harboring S81Y and S79Y mutation in quinolone-resistant determining regions of GyrA and ParC genes respectively after 41 passages with moxifloxacin measured after 10 daily antibiotic-free subculturing by multi-step resistance selection technique
Streptococcus pneumoniae [14] = experiment: as §3, with “100” for “99”, “42” for “41”, “levofloxacin” for “moxifloxacin”
Streptococcus pneumoniae [15] = experiment: as §3, with “100” for “99”, “S81Y” for “S81Y and S79Y”, “gene” for “and ParC genes respectively”, “22” for “41”
Streptococcus pneumoniae [16] = experiment: as §3, with “100” for “99”, “harboring” for “harboring S81Y and”, “of” for “of GyrA and”, “gene” for “genes respectively”, “34” for “41”, “gemifloxacin” for “moxifloxacin”
Streptococcus pneumoniae [17] = experiment: as §2, with “penicillin-resistant” for “penicillin-, macrolide-”, “228 expressing ermB and” for “63”, “D83N” for “D83Y”, “28” for “34”, “DC-159a” for “gemifloxacin”
Streptococcus pneumoniae [18] = experiment: as §2, with “penicillin-resistant” for “penicillin-, macrolide-”, “228 expressing ermB and” for “63”, “S79Y” for “D83Y”, “36” for “34”, “moxifloxacin” for “gemifloxacin”
Streptococcus pneumoniae [19] = experiment: as §2, with “penicillin-resistant” for “penicillin-, macrolide-”, “3583 expressing mefA and” for “63”, “D83N” for “D83Y”, “49” for “34”, “DC-159a” for “gemifloxacin”
Streptococcus pneumoniae [20] = experiment: (§4) Antibacterial activity against penicillin-resistant and quinolone-susceptible Streptococcus pneumoniae HMC 3583 expressing mefA and harboring S81F mutation in quinolone-resistant determining regions of GyrA gene and I460V, D435N mutation in QRDR of ParE gene after 46 passages with gatifloxacin measured after 10 daily antibiotic-free subculturing by multi-step resistance selection technique
Streptococcus pneumoniae [21] = experiment: as §4, with “I460V” for “S81F mutation in quinolone-resistant determining regions of GyrA gene and I460V, D435N”, “41” for “46”, “gemifloxacin” for “gatifloxacin”
Streptococcus pneumoniae [22] = experiment: Antibacterial activity against penicillin-susceptible Streptococcus pneumoniae ATCC 49619 by agar dilution method
Streptococcus pneumoniae [23] = experiment: Antibacterial activity against penicillin-intermediate Streptococcus pneumoniae […] by agar dilution method
Streptococcus pneumoniae [24] = experiment: Antibacterial activity against penicillin-resistant Streptococcus pneumoniae […] by agar dilution method
Streptococcus pneumoniae [25] = experiment: Antibacterial activity against azithromycin-susceptible Streptococcus pneumoniae ATCC 49619 by agar dilution method
Streptococcus pneumoniae [26] = experiment: Antibacterial activity against azithromycin-resistant Streptococcus pneumoniae […] by agar dilution method
Streptococcus pneumoniae [27] = experiment: Antibacterial activity against quinolone-susceptible Streptococcus pneumoniae ATCC 49619 by agar dilution method
Streptococcus pneumoniae [28] = experiment: Antibacterial activity against quinolone-resistant Streptococcus pneumoniae […] by agar dilution method
Streptococcus pneumoniae [29] = experiment: Antibacterial activity against penicillin-susceptible, quinolone-resistant Streptococcus pneumoniae 1072 expressing ermB and harboring S81F mutation in quinolone-resistant determining regions of GyrA gene, S79Y mutation in QRDR of ParC gene and I460V mutation in QRDR of ParE gene by broth microdilution method
Streptococcus pneumoniae [30] = experiment: Antibacterial activity against penicillin-, macrolide- and quinolone-susceptible Streptococcus pneumoniae HMC 63 by broth microdilution method
Streptococcus pneumoniae [31] = experiment: as §1, with “gene” for “gene after 50 passages”
Streptococcus pneumoniae [32] = experiment: Antibacterial activity against penicillin- and quinolone-susceptible Streptococcus pneumoniae HMC 5055 expressing mefA by broth microdilution method
Streptococcus pneumoniae [33] = experiment: Antibacterial activity against macrolide-, quinolone-susceptible and penicillin-intermediate Streptococcus pneumoniae HMC 100 by broth microdilution method
Streptococcus pneumoniae [34] = experiment: Antibacterial activity against macrolide-, quinolone-susceptible and penicillin-intermediate Streptococcus pneumoniae HMC 99 by broth microdilution method
Streptococcus pneumoniae [35] = experiment: Antibacterial activity against quinolone-susceptible and penicillin-intermediate Streptococcus pneumoniae HMC 441 expressing ermB by broth microdilution method
Streptococcus pneumoniae [36] = experiment: Antibacterial activity against quinolone-susceptible and penicillin-intermediate Streptococcus pneumoniae HMC 5048 expressing mefA by broth microdilution method
Streptococcus pneumoniae [37] = experiment: as §2, with “macrolide-susceptible” for “macrolide-”, “quinolone-resistant” for “quinolone-susceptible”, “1074” for “63”, “S81F, E85K” for “S81F”, “S79F” for “D83Y”, “27” for “34”
Streptococcus pneumoniae [38] = experiment: as §4, with “228” for “3583”, “ermB” for “mefA”, “GyrA gene, S79Y mutation in QRDR of ParC” for “GyrA”, “I460V” for “I460V, D435N”, “38” for “46”
Streptococcus pneumoniae [39] = experiment: as §4, with “GyrA gene, D83N mutation in QRDR of ParC” for “GyrA”, “I460V” for “I460V, D435N”, “44” for “46”, “levofloxacin” for “gatifloxacin”

`CC[C@H]1OC(=O)[C@H](C)[C@@H](O[C@H]2C[C@@](C)(OC)[C@@H](O)[C@H](C)O2)[C@H](C)[C@@H](O[C@@H]2O[C@H](C)C[C@H](N(C)C)[C@H]2O)[C@](C)(O)C[C@@H](C)CN(C)[C@H](C)[C@@H](O)[C@]1(C)O` [AZITHROMYCIN] was tested, and the MIC (Streptococcus pneumoniae [1]) was 0.06 µg/mL (≈ 0.0801 µM), the MIC (Streptococcus pneumoniae [2]) was over 64 µg/mL and the MIC (Streptococcus pneumoniae [3]) was 2 µg/mL (≈ 2.67 µM). For the same compound, the MIC (Streptococcus pneumoniae [4]) was over 64 µg/mL, the MIC (Streptococcus pneumoniae [5]) was 8 µg/mL (≈ 10.7 µM) and the MIC (Streptococcus pneumoniae [6]) was 0.06 µg/mL (≈ 0.0801 µM). For the same compound, the MIC (Streptococcus pneumoniae [7]) was 8 µg/mL (≈ 10.7 µM), the MIC (Streptococcus pneumoniae [8]) was 0.06 µg/mL (≈ 0.0801 µM) and the MIC (Streptococcus pneumoniae [9]) was 0.03 µg/mL (≈ 0.0401 µM). It also gave an MIC (Streptococcus pneumoniae [10]) of 4 µg/mL (≈ 5.34 µM), an MIC (Streptococcus pneumoniae [11]) of 0.03 µg/mL (≈ 0.0401 µM) and an MIC (Streptococcus pneumoniae [12]) of 0.03 µg/mL (≈ 0.0401 µM). For the same compound, the MIC (Streptococcus pneumoniae [13]) was 0.016 µg/mL (≈ 0.0214 µM), the MIC (Streptococcus pneumoniae [14]) was 0.03 µg/mL (≈ 0.0401 µM) and the MIC (Streptococcus pneumoniae [15]) was 0.03 µg/mL (≈ 0.0401 µM). The MIC (Streptococcus pneumoniae [16]) was 0.06 µg/mL (≈ 0.0801 µM), the MIC (Streptococcus pneumoniae [17]) was over 64 µg/mL and the MIC (Streptococcus pneumoniae [18]) was over 64 µg/mL. The MIC (Streptococcus pneumoniae [19]) was 0.25 µg/mL (≈ 0.334 µM), the MIC (Streptococcus pneumoniae [20]) was 0.25 µg/mL (≈ 0.334 µM) and the MIC (Streptococcus pneumoniae [21]) was 0.25 µg/mL (≈ 0.334 µM). It also gave an MIC50 (Streptococcus pneumoniae [22]) of 0.12 µg/mL (≈ 0.16 µM), an MIC90 (Streptococcus pneumoniae [22]) of over 64 µg/mL and an MIC50 (Streptococcus pneumoniae [23]) of 0.12 µg/mL (≈ 0.16 µM). For the same compound, the MIC90 (Streptococcus pneumoniae [23]) was over 64 µg/mL, the MIC50 (Streptococcus pneumoniae [24]) was 2 µg/mL (≈ 2.67 µM) and the MIC50 (Streptococcus pneumoniae [25]) was 0.12 µg/mL (≈ 0.16 µM). For the same compound, the MIC90 (Streptococcus pneumoniae [25]) was 0.12 µg/mL (≈ 0.16 µM), the MIC50 (Streptococcus pneumoniae [26]) was over 64 µg/mL and the MIC50 (Streptococcus pneumoniae [27]) was 1 µg/mL (≈ 1.34 µM). The MIC90 (Streptococcus pneumoniae [27]) was over 64 µg/mL, the MIC50 (Streptococcus pneumoniae [28]) was 0.06 µg/mL (≈ 0.0801 µM) and the MIC (Streptococcus pneumoniae [29]) was over 64 µg/mL. For the same compound, the MIC (Streptococcus pneumoniae [30]) was 0.016 µg/mL (≈ 0.0214 µM), the MIC (Streptococcus pneumoniae [31]) was 0.03 µg/mL (≈ 0.0401 µM) and the MIC (Streptococcus pneumoniae [32]) was 2 µg/mL (≈ 2.67 µM). The MIC (Streptococcus pneumoniae [33]) was 0.03 µg/mL (≈ 0.0401 µM), the MIC (Streptococcus pneumoniae [34]) was 0.016 µg/mL (≈ 0.0214 µM) and the MIC (Streptococcus pneumoniae [35]) was over 64 µg/mL. It also gave an MIC (Streptococcus pneumoniae [36]) of 4 µg/mL (≈ 5.34 µM), an MIC (Streptococcus pneumoniae [37]) of 0.016 µg/mL (≈ 0.0214 µM) and an MIC (Streptococcus pneumoniae [38]) of 2 µg/mL (≈ 2.67 µM). It also gave an MIC (Streptococcus pneumoniae [39]) of 2 µg/mL (≈ 2.67 µM).
